# Source: publication PMC8571951, “An activity‐based bioprobe differentiates a novel small molecule inhibitor from a LOXL2 antibody and provides renewed promise for anti‐fibrotic therapeutic strategies” (Clinical and Translational Medicine, 2021)
# Molecular target: T1, LOXL2 (Rattus norvegicus, UniProt B5DF27)
# T1 construct: from tissue; host or cells: rat plasma and lung
# T1 sequence (B5DF27 26-776): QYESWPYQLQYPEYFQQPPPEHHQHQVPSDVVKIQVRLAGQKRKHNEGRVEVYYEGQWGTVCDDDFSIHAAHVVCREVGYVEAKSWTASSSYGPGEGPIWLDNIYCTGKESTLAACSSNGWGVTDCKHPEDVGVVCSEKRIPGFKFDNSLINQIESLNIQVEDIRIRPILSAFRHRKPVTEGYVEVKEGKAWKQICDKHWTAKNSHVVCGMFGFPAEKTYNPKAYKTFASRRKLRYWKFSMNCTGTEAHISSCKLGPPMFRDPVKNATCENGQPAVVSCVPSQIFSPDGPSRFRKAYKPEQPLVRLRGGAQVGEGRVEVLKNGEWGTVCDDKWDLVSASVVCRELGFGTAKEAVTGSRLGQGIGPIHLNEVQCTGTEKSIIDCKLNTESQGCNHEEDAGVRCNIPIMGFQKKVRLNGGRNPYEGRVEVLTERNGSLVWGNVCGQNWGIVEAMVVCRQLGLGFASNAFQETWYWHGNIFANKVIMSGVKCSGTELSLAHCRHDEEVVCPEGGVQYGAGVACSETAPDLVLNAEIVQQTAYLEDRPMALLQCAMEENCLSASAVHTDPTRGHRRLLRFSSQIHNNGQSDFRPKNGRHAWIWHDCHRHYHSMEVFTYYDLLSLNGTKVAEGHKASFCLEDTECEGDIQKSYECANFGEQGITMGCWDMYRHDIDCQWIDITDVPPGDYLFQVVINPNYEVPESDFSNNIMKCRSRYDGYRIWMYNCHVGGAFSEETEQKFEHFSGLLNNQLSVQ
# Assay: Ex vivo LOXL2 activity after oral dosing in rats (PXS-5878/Simoa)
# Details: 30 mg/kg oral
# Experimental: FIGURE 2 Characteristics of PXS‐5338 and inhibition of lysyl oxidase‐like 2 (LOXL2) enzymatic activity in vitro and in vivo. (A) Chemical structure of PXS‐5338. […] (B) Tissue levels of PXS‐5338 measured 1 and 4 h after a single oral dose of 30 mg/kg in the rat. […] Average data from three different animals. (C) Concentration‐dependent inhibition of native […] LOX and rh LOXL1‐4 in a standard Amplex Red assay with 30 min pre‐incubation; n ≥3 independent experiments, standard error of mean (SEM). (D) PXS‐5338 inhibits rh LOXL2 in a time‐dependent manner, with increasing potency observed upon longer incubation with the enzyme. LOXL2 activity data devised from Amplex Red assay using putrescine as substrate and varying pre‐incubation times; n ≥3 independent experiments, standard error of mean (SEM). […] AB0023 and the corresponding isotype control antibody GS834298 were kindly provided by Gilead. Concentration‐response curves for the pan‐LOX inhibitor BAPN and LOXL2‐selective inhibitor PXS‐5338 are included for comparison. Data represented as mean ± SD with n = 5/concentration. […] To enable translation of preclinical data into the clinic, human plasma was incubated with different concentrations of PXS‐5338 for 30 min and the PXS‐5878/Simoa® platform used to measure the residual activity. […]
structure (smiles),measurement,setting,value
CC(C)c1c(Cc2ccc(S(C)(=O)=O)nc2)c2ncccc2n1C/C(F)=C/CN [PXS‐5338],Inhibition of LOXL2 activity in the lung (as in plasma),4 h,almost complete inhibition
same,Inhibition of LOXL2 activity remaining,24 h,no inhibition remained
